In patent US20110281728A1, “METHOD FOR CONTROLLING COLORATION IN TABLE GRAPES BASED ON OLIGOGALACTURONIDES” (CENTRO DE INVESTIGACION EN ALIMENTACION Y DESARROLLO A.C., priority 2008, published 2011):
Marks after values point to notes of the source that are not given here.

Test system: red table grapes
Assay: Grape color in Color Index units for Red Grapes (CIRG) after application to grape plants
Type: in vivo, Vitis vinifera
Conditions: 500 ppm
Experimental: Control of coloration by means of OGAs determines a new use of these polymers which ensure a controlled ripening and effective coloring, which provide a high quality in table grapes. OGAs were obtained by enzymatic hydrolysis of polygalacturonic acid (PGA), stopping the reaction by heating to 100° C. for 30 minutes. Partial purification was performed by using an ultra-filtration equipment to recover OGAs in the range of 5-10 KDa. For the comparison of the degree of polymerization of 7-20 GP, these were compared with external standards. OGAs were frozen using liquid nitrogen in order to obtain a powdered mixture, which was applied to grape plants in a particular proportion. Six treatments were used: three using different concentrations of OGAs, methyl jasmonate (MeJa), Ethrel and a control (water).
To determine the best way to control the red color in grapes, a series of experiments was performed, wherein doses of the mixture, application times, application conditions, and periods of application were tested, finding that the results are obtained: when the mixture was applied in an amount of 0.25 L per plant during the morning at a temperature of 18-20° C. for a period of two days during the veraison period.

Row | SMILES | grape color (CIRG) (1 day post-application) | grape color (CIRG) (5 days post-application) | grape color (CIRG) (10 days post-application) | grape color (CIRG) (15 days post-application) | grape color (CIRG) (20 days post-application)
1 | CC/C=C\CC1C(=O)CCC1CC(=O)OC (stereo not shown) [MeJa, methyl jasmonate] | 1.13^a CIRG | 2.20^a CIRG | 3.41^a CIRG | 3.20^a CIRG | 3.31^b CIRG
2 | O=P(O)(O)CCCl [Ethrel, 2-chloroethyl phosphonic acid] | 1.17^a CIRG | 2.44^a CIRG | 2.96^a CIRG | 3.37^a CIRG | 3.76^a CIRG
